ChEMBL document CHEMBL3352743, “Chemically accessible hsp90 inhibitor that does not induce a heat shock response” (ACS Med Chem Lett, 2014)
≈ marks a conversion by molar mass, not a printed value.

Key:
[1] = Cytotoxicity against human HCT116 cells after 72 hrs by CCK8 assay; format: functional, cell-based; conditions: HCT-116, 72 h
[2] = Cytotoxicity against human MIAPaCa2 cells after 72 hrs by CCK8 assay; format: functional, cell-based; conditions: MIA PaCa-2, 72 h
[3] = Solubility in 80% EtOH/20% water; format: physicochemical; conditions: 80% EtOH/20% water; read-out: solubility

| solubility [3] [µg/mL] | SMILES | IC50 [1] [µM] | IC50 [2] [µM] |
| --- | --- | --- | --- |
| 2100 (≈ 2960 µM) | CC(C)C[C@@H]1NC(=O)[C@H](C(C)C)N(C)C(=O)[C@@H](CC(C)C)NC(=O)[C@@H](Cc2ccccc2)NC(=O)[C@@H](C(c2ccccc2)c2ccccc2)NC1=O | 7.6 | 12.8 |
|  | CC(C)C[C@@H]1NC(=O)[C@H](C(C)C)N(C)C(=O)[C@@H](CC(C)C)NC(=O)[C@@H](Cc2ccccn2)NC(=O)[C@@H](C(c2ccccc2)c2ccccc2)NC1=O | 18.1 | 23.6 |
|  | CC(C)C[C@@H]1NC(=O)[C@H](C(C)C)N(C)C(=O)[C@@H](CC(C)C)NC(=O)[C@@H](Cc2cccnc2)NC(=O)[C@@H](C(c2ccccc2)c2ccccc2)NC1=O | 20.8 | 23 |
|  | CC(C)C[C@@H]1NC(=O)[C@H](C(C)C)N(C)C(=O)[C@@H](CC(C)C)NC(=O)[C@@H](Cc2ccncc2)NC(=O)[C@@H](C(c2ccccc2)c2ccccc2)NC1=O | 15.7 | 18.5 |
| 1900 (≈ 2540 µM) | CC(C)C[C@@H]1NC(=O)[C@H](C(C)C)N(C)C(=O)[C@@H](CC(C)C)NC(=O)[C@@H](Cc2c[nH]c3ccccc23)NC(=O)[C@@H](C(c2ccccc2)c2ccccc2)NC1=O | 3.9 | 4.5 |
